Data on four molecules can be found in US20250312303A1, “ANTICANCER AGENT” (AGC Inc., priority 2022, published 2025).

The subject of one assay is NHDF cells. As to the kind of experiment: SRB assay, relative cell proliferation rate of NHDF cells (control non-cancer cells). Format: cell-based. The text has this:
(§1) HeLa cells and PANC-1 cells were used as the cancer cells. Both these cells were obtained from ATCC. Further, NHDF cells obtained from Lonza Group Ltd. were used as control non-cancer cells. The culture mediums used were Dulbecco's Modified Eagle Medium (D-MEM, manufactured by FUJIFILM Wako Pure Chemical Corporation) to which 10% FBS had been added (hereinafter also referred to as the “normal medium”), a medium prepared by removing leucine from D-MEM and adding 10% FBS (hereinafter also referred to as the “Leu-removed medium”), and a medium prepared by removing valine from D-MEM and adding 10% FBS (hereinafter also referred to as the “Val-removed medium”).
(§2) The culture cells were inoculated into a 96-well culture plate at a concentration of 3×10^3 cells/well, and following adhesion, were cultured for 24, 48 or 72 hours in the normal medium, the Leu-removed medium or Val-removed medium, or a medium prepared by adding the fluorine-containing amino acid to the Leu-removed medium or Val-removed medium in an amount sufficient to achieve a final concentration of 0.8 mM. Following culturing, the cell proliferation rate was measured by SRB assay. As a control, the cell proliferation rate was measured in a similar manner for cells having a culture time of 0 hours.
(§3) The SRB assays were conducted in the following manner. Following cell culturing, the medium was removed, and 10% (wt/vol) of trichloroacetic acid was added to fix the cells. Subsequently, the fixed cells were washed three times with tap water, and then stained by adding a solution containing 0.4% (wt/vol) of sulforhodamine B dissolved in 1% acetic acid. Following subsequent washing three times with a 1% acetic acid solution, a 10 mM Tris solution was added, and the light absorbance at 540 nm was measured. The 540 nm absorbance value for each sample was used to indicate the cell quantity, and for each sample, the relative cell proliferation rate (%) at a culture time of X hours was determined using the formula below.
(§4) SRB assays were conducted in the same manner as Example 1 with the exceptions of using a medium prepared by removing glutamine from D-MEM and adding 10% FBS (hereinafter also referred to as the “Gln-removed medium”) as the culture medium instead of the Leu-removed medium, using monofluoroglutamine ((2S,4S)Gln(1F) or (2S,4R)Gln(1F)) as the fluorine-containing amino acid, and altering the amount of monofluoroglutamine added to the Gln-removed medium to an amount sufficient to achieve a final concentration of 4 mM.

The next assay deals with PANC-1 cells. The assay is described as follows: SRB assay, relative cell proliferation rate of PANC-1 cells. Format: cell-based.
Source text: as §1, §2, §3, §4
(§5) SRB assays were conducted in the same manner as Example 1 with the exceptions of using the Gln-removed medium as the culture medium instead of the Leu-removed medium, using difluoroglutamine as the fluorine-containing amino acid, and altering the amount of difluoroglutamine added to the Gln-removed medium to an amount sufficient to achieve a final concentration of 4 mM.

For assay [1], the system named is HeLa cells. As to the kind of experiment: SRB assay, relative cell proliferation rate of HeLa cells. Format: cell-based.
Source text: as §1, §2, §3, §4, §5

In assay [2] the test system is HeLa cells. As to the kind of experiment: Tumor volume of subcutaneously transplanted HeLa cells in SCID/SCID mice. Format: in vivo. Conditions: for Tumor volume: 5 mg/kg intraperitoneally every day for two weeks starting day 7; for Increase in the size of the tumor tissue compared with the control group: HeLa tumor-bearing SCID/SCID mice, 5 mg/kg intraperitoneally every day for two weeks, result in words. As to the method:
First, 0.1 mL samples of an HeLa cell solution with a concentration of 1.0×10^7 cells/mL were transplanted beneath the skin of SCID/SCID (immunodeficient) mice. Starting 7 days after the HeLa cell transplantation, PBS (control group), leucine (5 mg/kg mouse bodyweight) or trifluoroleucine (5 mg/kg mouse bodyweight) was administered intraperitoneally every day for two weeks. The growth of the tumor tissue was observed over time from the time of HeLa transplantation, and the tumor volume (mm^3) was calculated. The tumor volume (mm^3) was calculated from the major diameter (mm) of the tumor tissue and the minor diameter (mm) of the tumor tissue using the formula shown below.
With the exceptions of using monofluoroisoleucine or 5-fluoro-5-methyl-norleucine (CAS RN: 1361228-49-0) instead of the trifluoroleucine, and starting the administration of the PBS, 5-fluoro-5-methyl-norleucine or monofluoroisoleucine 11 days after rather than 7 days after the HeLa cell transplantation, the same procedure as (1) above was used to measure the volume (mm^3) of the tumor formed by the subcutaneously transplanted HeLa cells over time.
(§6) First, 0.1 mL samples of an HeLa cell solution with a concentration of 1.0×10^7 cells/mL were transplanted beneath the skin of SCID/SCID (immunodeficient) mice. Starting 7 days after the HeLa cell transplantation, PBS (control group), glutamine (Gln) (5 mg/kg mouse bodyweight), (2S,4S)Gln(1F) (5 mg/kg mouse bodyweight) or (2S,4R)Gln(1F) (5 mg/kg mouse bodyweight) was administered intraperitoneally every day for two weeks. The growth of the tumor tissue was observed over time from the time of HeLa cell transplantation, and the tumor volume (mm^3) was calculated. The tumor volume (mm^3) was determined in the same manner as that described in Example 2.
as §6, with “mouse bodyweight), or di-F-Gln(F)” for “mouse bodyweight), (2S,4S)Gln(1F) (5 mg/kg mouse bodyweight) or (2S,4R)Gln(1F)”, “bodyweight), or di-F-Gln(F) (5 mg/kg” for “bodyweight) or (2S,4R)Gln(1F) (5 mg/kg”, “of HeLa transplantation, and” for “of HeLa cell transplantation, and”

[3] abbreviates: Gln-removed medium + 4 mM amino acid, culture time 24 h.
Setting [4] is: Gln-removed medium + 4 mM amino acid, culture time 48 h.
Setting [5] is: Gln-removed medium + 4 mM amino acid, culture time 72 h.
Setting [6] is: 7 days since HeLa cell transplantation.
[7] abbreviates: 9 days since HeLa cell transplantation.
[8] abbreviates: 11 days since HeLa cell transplantation.
The mark [9] stands for this setting: 14 days since HeLa cell transplantation.
[10] abbreviates: 16 days since HeLa cell transplantation.
Setting [11] is: 18 days since HeLa cell transplantation.
[12] abbreviates: 21 days since HeLa cell transplantation.
Setting [13] is: Leu-removed medium + 0.8 mM amino acid, culture time 24 h.
The mark [14] stands for this setting: Leu-removed medium + 0.8 mM amino acid, culture time 48 h.
Where [15] appears, read: Leu-removed medium + 0.8 mM amino acid, culture time 72 h, hydrochloride.
Where [16] appears, read: Val-removed medium + 0.8 mM amino acid, culture time 24 h.
The mark [17] stands for this setting: Val-removed medium + 0.8 mM amino acid, culture time 48 h.
Where [18] appears, read: Val-removed medium + 0.8 mM amino acid, culture time 72 h.

On to `NC(=O)[C@H](F)C[C@H](N)C(=O)O` [(2S,4R)-Gln(1F)], for which the “Relative cell proliferation rate of NHDF cells” value in the assay with NHDF cells (setting [3]) came to 132.5%; in the assay with NHDF cells (setting [4]), 46.5%; with NHDF cells (setting [5]), 26.3%. Also, the entries for the “Relative cell proliferation rate of PANC-1 cells” value in the assay on PANC-1 cells (setting [3]), in the assay with PANC-1 cells (setting [4]) and with PANC-1 cells (setting [5]) were 65.0%, 34.7% and 25.7%, respectively. In addition, the “Relative cell proliferation rate of HeLa cells” value amounted to 46.8% in the assay on HeLa cells [1] (setting [3]), 21.5% in the assay with HeLa cells [1] (setting [4]) and 23.1% in the assay with HeLa cells [1] (setting [5]). The Tumor volume with HeLa cells [2] (setting [6]) worked out at 74.6 mm^3; with HeLa cells [2] (setting [7]), 101.6 mm^3; with HeLa cells [2] (setting [8]), 147.2 mm^3; with HeLa cells [2] (setting [9]), 219.1 mm^3; in the assay with HeLa cells [2] (setting [10]), 287.0 mm^3; with HeLa cells [2] (setting [11]), 307.7 mm^3. Also, the Tumor volume in the assay with HeLa cells [2] (setting [12]) amounted to 431.4 mm^3. In the assay with HeLa cells [2], the “Increase in the size of the tumor tissue compared with the control group” value (from here on “Increase in the size of the tumor tissue”) is reported as “dramatically inhibited”.

Take `NC(=O)[C@@H](F)C[C@H](N)C(=O)O` [(2S,4S)-Gln(1F)]: the “Relative cell proliferation rate of NHDF cells” value in the assay with NHDF cells (setting [3]) turned out to be 157.4%; with NHDF cells (setting [4]), 129.4%; with NHDF cells (setting [5]) it was 82.9%. In addition, the “Relative cell proliferation rate of PANC-1 cells” value with PANC-1 cells (setting [3]) worked out at 31.5%; in the assay with PANC-1 cells (setting [4]), 27.3%; in the assay with PANC-1 cells (setting [5]), 25.7%. The “Relative cell proliferation rate of HeLa cells” value in the assay with HeLa cells [1] (setting [3]) turned out to be 29.2%; with HeLa cells [1] (setting [4]) it was 32.1%; with HeLa cells [1] (setting [5]), 25.0%. For the same molecule, the Tumor volume in the assay with HeLa cells [2] (setting [6]) came to 72.1 mm^3; in the assay on HeLa cells [2] (setting [7]) it was 96.9 mm^3; in the assay on HeLa cells [2] (setting [8]) it was 149.0 mm^3; with HeLa cells [2] (setting [9]), 207.1 mm^3; with HeLa cells [2] (setting [10]), 242.3 mm^3; in the assay with HeLa cells [2] (setting [11]), 357.2 mm^3. Moreover, the Tumor volume in the assay with HeLa cells [2] (setting [12]) came out at 439.9 mm^3. Further, the “Increase in the size of the tumor tissue” value in the assay with HeLa cells [2] is recorded as “dramatically inhibited”.

With `CC(CC(N)C(=O)O)C(F)(F)F.Cl` (stereo not shown) [Leu(3F), 2-amino-5,5,5-trifluoro-4-methylpentanoic acid hydrochloride], the “Relative cell proliferation rate of NHDF cells” value in the assay with NHDF cells (setting [13]) is given as 138.5%; in the assay on NHDF cells (setting [14]), 138.2%; with NHDF cells (setting [15]) it was 185.6%; with NHDF cells (Leu-removed medium + 0.8 mM amino acid, culture time 72 h, listed as trifluoroleucine, hydrochloride) it was roughly 200%. The “Relative cell proliferation rate of PANC-1 cells” value turned out to be 77.1% with PANC-1 cells (setting [13]), 87.0% in the assay with PANC-1 cells (setting [14]) and 75.5% in the assay on PANC-1 cells (setting [15]). The results for the “Relative cell proliferation rate of HeLa cells” value in the assay with HeLa cells [1] (setting [13]), in the assay on HeLa cells [1] (setting [14]) and with HeLa cells [1] (setting [15]) were 78.5%, 91.6% and 89.5%, respectively. Also, the Tumor volume in the assay with HeLa cells [2] (setting [6]) was found to be 135.6 mm^3; in the assay with HeLa cells [2] (10 days since HeLa cell transplantation) it was 169.4 mm^3; in the assay with HeLa cells [2] (12 days since HeLa cell transplantation), 204.1 mm^3; in the assay on HeLa cells [2] (setting [9]), 200.6 mm^3; in the assay with HeLa cells [2] (17 days since HeLa cell transplantation) it was 315.3 mm^3; in the assay with HeLa cells [2] (19 days since HeLa cell transplantation), 460.2 mm^3. Further, the Tumor volume in the assay with HeLa cells [2] (setting [12]) was 704.0 mm^3. For the same molecule, the “Increase in the size of the tumor tissue” value in the assay on HeLa cells [2] is on record as “dramatically inhibited”.

As to `CC(C(N)C(=O)O)C(F)(F)F` (stereo not shown) [Val(3F), 2-amino-3-methyl-4,4,4-trifluorobutanoic acid], the “Relative cell proliferation rate of NHDF cells” value in the assay with NHDF cells (setting [16]) is on record as 83.0%; in the assay on NHDF cells (setting [17]), 104.6%; with NHDF cells (setting [18]), 116.6%. Also, the “Relative cell proliferation rate of PANC-1 cells” value in the assay with PANC-1 cells (setting [16]) was determined as 108.9%; in the assay on PANC-1 cells (setting [17]), 161.2%; in the assay on PANC-1 cells (setting [18]), 253.7%. For the same molecule, the results for the “Relative cell proliferation rate of HeLa cells” value in the assay with HeLa cells [1] (setting [16]), in the assay on HeLa cells [1] (setting [17]) and in the assay on HeLa cells [1] (setting [18]) were 151.7%, 287.6% and 494.3%, respectively.
